Reference: article doi:10.1101/2023.04.18.537371v1 (bioRxiv, 2023)
Peptide text beside a SMILES is read from it.

Columns and labels:
[1] = tested on: human hepatocytes; test: Metabolite identification in hepatocytes; assay type: in vitro ADME; settings: cryopreserved human hepatocytes, FC-12738 10 μM, 37 °C, 240 min, LC-UV-MS
[2] = target: CYP2D6 (Homo sapiens, UniProt P10635); test: CYP time-dependent inhibition assay; assay type: in vitro ADME
[3] = tested on: human hepatocytes; test: LDH release cytotoxicity in the CYP induction assay; assay type: cell-based; settings: three donors, 0.100, 1.00, 3.00, 10.0 and 15.0 μM
[4] = Plasma stability; assay type: in vitro ADME, human
[5] = tested on: CD-1 mouse hepatocytes; test: Hepatocyte stability; assay type: in vitro ADME; settings: 1.00 μM
[6] = target: BCRP (Homo sapiens, UniProt Q9UNQ0); test: Inhibition of BCRP in Caco-2 cells; assay type: in vitro ADME
[7] = tested on: CYP3A; test: CYP time-dependent inhibition assay; assay type: in vitro ADME, human
[8] = target: CYP2C19 (Homo sapiens, UniProt P33261); test: CYP time-dependent inhibition assay; assay type: in vitro ADME
[9] = Plasma and brain levels in male CD-1 mice after a single IP dose; assay type: in vivo, CD-1 mouse; settings: for Tissue Homogenate Conc / Plasma Conc: male CD-1 mice, IP 10 mg/kg single
[10] = tested on: dog hepatocytes; test: Metabolite identification in hepatocytes; assay type: in vitro ADME; settings: cryopreserved dog hepatocytes, FC-12738 10 μM, 37 °C, 240 min, LC-UV-MS
[11] = In vitro protein binding, rapid equilibrium dialysis; assay type: in vitro ADME; settings: cynomolgus monkey, plasma
[12] = target: CYP2C9 (Homo sapiens, UniProt P11712); test: CYP450 inhibition assay; assay type: in vitro ADME
[13] = target: MATE1 (Homo sapiens, UniProt Q96FL8); test: Transporter inhibition in HEK293 cells; assay type: in vitro ADME
[14] = tested on: human hepatocytes; test: Concentration change of FC-12738 in the CYP induction assay; assay type: in vitro ADME; settings: 24 hours, 37°C
[15] = target: T1, CYP2B6 (Homo sapiens, UniProt P20813); test: biochemical; assay type: in vitro ADME
T1 sequence (P20813 1-491): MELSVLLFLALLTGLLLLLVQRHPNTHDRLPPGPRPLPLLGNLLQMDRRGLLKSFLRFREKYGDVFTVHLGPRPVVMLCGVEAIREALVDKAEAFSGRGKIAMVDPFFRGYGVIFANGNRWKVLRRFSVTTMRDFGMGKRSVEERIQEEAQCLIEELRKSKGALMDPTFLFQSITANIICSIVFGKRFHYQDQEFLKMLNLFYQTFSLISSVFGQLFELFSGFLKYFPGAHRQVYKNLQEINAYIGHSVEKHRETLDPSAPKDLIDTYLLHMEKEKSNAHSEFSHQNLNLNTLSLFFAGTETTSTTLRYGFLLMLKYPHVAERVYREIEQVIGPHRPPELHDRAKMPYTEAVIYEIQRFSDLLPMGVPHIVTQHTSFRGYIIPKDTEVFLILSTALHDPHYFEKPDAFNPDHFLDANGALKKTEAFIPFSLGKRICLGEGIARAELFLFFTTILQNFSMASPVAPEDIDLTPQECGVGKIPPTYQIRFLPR

[16] = tested on: cynomolgus monkey hepatocytes; test: Hepatocyte stability; assay type: in vitro ADME; settings: 1.00 μM
[17] = cutoff IC50 shift >= 1.5-fold, 30 min pre-incubation ± NADPH
[18] = male, CD-1, mouse, brain homogenate, ip, 10 mg/kg
[19] = male, CD-1, mouse, brain, ip, 10 mg/kg
[20] = male, CD-1, mouse, plasma, ip, 10 mg/kg

Sequence of CYP2D6 (P10635 whole entry): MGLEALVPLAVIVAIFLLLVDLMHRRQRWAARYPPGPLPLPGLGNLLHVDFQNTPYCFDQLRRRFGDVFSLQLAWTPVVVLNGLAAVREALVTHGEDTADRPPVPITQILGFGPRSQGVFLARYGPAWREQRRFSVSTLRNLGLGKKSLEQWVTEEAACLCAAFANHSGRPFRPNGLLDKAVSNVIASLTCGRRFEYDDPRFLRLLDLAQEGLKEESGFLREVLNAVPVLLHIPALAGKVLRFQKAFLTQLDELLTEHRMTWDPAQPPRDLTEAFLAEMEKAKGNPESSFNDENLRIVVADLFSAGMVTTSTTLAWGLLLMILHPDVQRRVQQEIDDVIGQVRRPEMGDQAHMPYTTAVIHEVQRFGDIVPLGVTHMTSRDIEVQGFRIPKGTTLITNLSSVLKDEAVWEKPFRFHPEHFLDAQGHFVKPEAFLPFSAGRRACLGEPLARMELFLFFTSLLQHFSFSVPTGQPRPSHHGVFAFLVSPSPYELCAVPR
Sequence of CYP2C19 (P33261 whole entry): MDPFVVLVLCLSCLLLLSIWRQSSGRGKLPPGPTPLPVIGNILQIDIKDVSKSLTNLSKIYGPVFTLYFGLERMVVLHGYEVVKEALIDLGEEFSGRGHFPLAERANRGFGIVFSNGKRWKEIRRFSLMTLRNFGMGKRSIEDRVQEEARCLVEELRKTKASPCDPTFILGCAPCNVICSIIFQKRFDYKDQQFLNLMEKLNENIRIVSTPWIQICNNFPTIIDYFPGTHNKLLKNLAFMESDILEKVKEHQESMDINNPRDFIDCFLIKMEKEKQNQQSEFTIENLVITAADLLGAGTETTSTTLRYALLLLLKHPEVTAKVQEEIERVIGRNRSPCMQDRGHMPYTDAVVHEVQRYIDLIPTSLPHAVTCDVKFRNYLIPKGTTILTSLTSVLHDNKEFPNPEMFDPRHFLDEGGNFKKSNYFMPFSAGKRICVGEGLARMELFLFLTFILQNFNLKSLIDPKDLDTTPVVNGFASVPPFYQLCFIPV
Sequence of CYP2C9 (P11712 whole entry): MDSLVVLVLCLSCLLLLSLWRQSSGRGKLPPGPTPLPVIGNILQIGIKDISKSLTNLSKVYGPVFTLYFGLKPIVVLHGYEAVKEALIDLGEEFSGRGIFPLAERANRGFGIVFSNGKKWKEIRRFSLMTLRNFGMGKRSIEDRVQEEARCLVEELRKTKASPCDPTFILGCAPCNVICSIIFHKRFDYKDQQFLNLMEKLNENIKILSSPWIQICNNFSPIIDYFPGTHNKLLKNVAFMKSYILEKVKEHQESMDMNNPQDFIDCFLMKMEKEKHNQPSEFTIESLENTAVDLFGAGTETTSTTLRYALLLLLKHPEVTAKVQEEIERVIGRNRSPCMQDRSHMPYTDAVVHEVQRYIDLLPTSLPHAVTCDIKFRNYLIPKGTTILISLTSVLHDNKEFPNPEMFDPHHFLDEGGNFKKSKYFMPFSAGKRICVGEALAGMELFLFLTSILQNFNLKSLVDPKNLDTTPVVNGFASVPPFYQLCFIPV
Sequence of BCRP (Q9UNQ0 whole entry): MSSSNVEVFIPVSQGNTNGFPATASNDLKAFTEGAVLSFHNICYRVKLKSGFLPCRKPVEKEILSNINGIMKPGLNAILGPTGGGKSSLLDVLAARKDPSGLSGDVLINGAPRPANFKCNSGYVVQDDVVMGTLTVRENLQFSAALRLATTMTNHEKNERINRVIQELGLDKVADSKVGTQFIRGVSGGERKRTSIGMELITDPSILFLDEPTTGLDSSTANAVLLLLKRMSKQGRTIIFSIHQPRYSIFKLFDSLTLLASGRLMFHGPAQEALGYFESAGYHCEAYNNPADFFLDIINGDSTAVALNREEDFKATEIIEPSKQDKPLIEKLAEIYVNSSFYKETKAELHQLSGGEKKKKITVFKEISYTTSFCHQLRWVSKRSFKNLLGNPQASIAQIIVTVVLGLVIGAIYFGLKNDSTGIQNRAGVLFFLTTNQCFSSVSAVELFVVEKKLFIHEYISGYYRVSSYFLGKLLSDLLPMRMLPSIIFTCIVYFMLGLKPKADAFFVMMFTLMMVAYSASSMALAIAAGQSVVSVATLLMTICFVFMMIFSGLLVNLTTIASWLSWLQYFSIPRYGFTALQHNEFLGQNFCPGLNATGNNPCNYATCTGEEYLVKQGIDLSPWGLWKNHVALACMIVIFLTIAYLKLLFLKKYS
Sequence of MATE1 (Q96FL8 whole entry): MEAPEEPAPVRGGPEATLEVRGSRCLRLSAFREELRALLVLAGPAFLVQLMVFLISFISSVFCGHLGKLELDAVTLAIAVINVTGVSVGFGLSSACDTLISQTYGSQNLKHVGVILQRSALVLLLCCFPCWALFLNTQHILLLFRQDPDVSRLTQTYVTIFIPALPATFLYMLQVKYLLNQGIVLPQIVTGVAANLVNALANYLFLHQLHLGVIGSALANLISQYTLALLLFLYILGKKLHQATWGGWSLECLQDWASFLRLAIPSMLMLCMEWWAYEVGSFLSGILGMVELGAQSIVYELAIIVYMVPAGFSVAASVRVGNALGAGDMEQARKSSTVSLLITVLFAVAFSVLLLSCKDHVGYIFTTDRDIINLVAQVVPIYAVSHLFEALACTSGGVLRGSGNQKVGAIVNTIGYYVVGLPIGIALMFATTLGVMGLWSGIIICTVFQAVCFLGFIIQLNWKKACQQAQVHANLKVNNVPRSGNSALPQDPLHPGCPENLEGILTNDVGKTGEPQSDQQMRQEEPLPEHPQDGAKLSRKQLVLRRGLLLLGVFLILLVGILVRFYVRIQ

CC(C)[C@@H](NC(=O)[C@H](N)Cc1ccc(O)cc1)C(=O)N[C@H](CC(=O)O)C(=O)N[C@H](CCCCN)C(=O)N[C@H](CCCNC(=N)N)C(=O)O [FC-12738, (D-Tyr)-(D-Val)-(D-Asp)-(D-Lys)-(D-Arg)] (HELM PEPTIDE1{[dY].[dV].[dD].[dK].[dR]}$$$$V2.0)
Relative Abundance (UV%) [1]: 91.82% | IC50 [2]: > 100 µM | Time-dependent inhibition of CYP2D6 [2, 17]: no time-dependent inhibition | Cytotoxicity (released LDH) [3]: no cytotoxicity | half-life ([4]; human plasma, 2.00 μM, 37.0 °C, up to 120 min): > 6.212 h | remaining at 10 min, 2 μM ([4]; human, plasma): 93.3% | remaining at 0.5 h, 2 μM ([4]; human, plasma): 93.6% | remaining at 1 h, 2 μM ([4]; human, plasma): 90.6% | remaining at 2 h, 2 μM ([4]; human, plasma): 85.6% | intrinsic clearance CLint(hep) ([5]; cryopreserved CD-1 mouse hepatocytes, 37.0°C, 120 min): < 1.9 μL/min/10^6 cells | half-life ([5]; cryopreserved CD-1 mouse hepatocytes, 37.0°C, 120 min, LC-MS/MS): > 6.212 h | hepatic clearance CLint(liver) ([5]; scaled from CD-1 mouse hepatocytes): < 22.1 mL/min/kg | IC50 [6]: > 100 µM | IC50 at 30 min ([7]; human, pooled human liver microsomes): > 100 µM | Time-dependent inhibition of CYP3A ([7]; midazolam and testosterone as substrates, cutoff IC50 shift >= 1.5-fold): no time-dependent inhibition | IC50 [8]: > 100 µM | Time-dependent inhibition of CYP2C19 [8, 17]: no time-dependent inhibition | Tissue Homogenate Conc ([9]; brain homogenate, 0.5 h, animal 2): 17.6 ng/mL | Tissue Homogenate Conc ([9]; brain homogenate, 0.5 h, animal 3): 14.1 ng/mL | Tissue Homogenate Conc ([9]; brain homogenate, 1 h, animal 1): 8.28 ng/mL | Tissue Homogenate Conc ([9]; brain homogenate, 1 h, animal 2): 10.1 ng/mL | Tissue Homogenate Conc ([9]; brain homogenate, 1 h, animal 3): 8.41 ng/mL | Tissue Homogenate Conc ([9]; brain homogenate, 2 h, animal 1): 6.96 ng/mL | Tissue Homogenate Conc ([9]; brain homogenate, 2 h, animal 2): 5.73 ng/mL | Tissue Homogenate Conc ([9]; brain homogenate, 2 h, animal 3): 7.47 ng/mL | Tissue Homogenate Conc ([9]; brain homogenate, 4 h, animal 1): 1.76 ng/mL | Tissue Homogenate Conc ([9]; brain homogenate, 4 h, animal 2): 1.22 ng/mL | Tissue Homogenate Conc ([9]; brain homogenate, 4 h, animal 3): 1.06 ng/mL | level at 0.5 h [9, 18]: 16.4 ng/mL | level at 1 h [9, 18]: 8.93 ng/mL | level at 2 h [9, 18]: 6.72 ng/mL | level at 4 h [9, 18]: 1.35 ng/mL | tissue level at time at 0.5 h [9, 19]: 65.5 ng/g | tissue level at time at 1 h [9, 19]: 35.7 ng/g | tissue level at time at 2 h [9, 19]: 26.9 ng/g | tissue level at time at 4 h [9, 19]: 5.39 ng/g | level at 0.5 h [9, 20]: 2090 ng/mL | level at 1 h [9, 20]: 1210 ng/mL | level at 2 h [9, 20]: 627 ng/mL | level at 4 h [9, 20]: 84.1 ng/mL | level at 8 h [9, 20]: 16.7 ng/mL | Plasma Conc ([9]; plasma, 0.5 h, animal 1, LC-MS/MS): 2230 ng/mL | Plasma Conc ([9]; plasma, 0.5 h, animal 2): 1790 ng/mL | Plasma Conc ([9]; plasma, 0.5 h, animal 3): 2260 ng/mL | Plasma Conc ([9]; plasma, 1 h, animal 1): 885 ng/mL | Plasma Conc ([9]; plasma, 1 h, animal 2): 1320 ng/mL | Plasma Conc ([9]; plasma, 1 h, animal 3): 1420 ng/mL | Plasma Conc ([9]; plasma, 2 h, animal 1): 543 ng/mL | Plasma Conc ([9]; plasma, 2 h, animal 2): 592 ng/mL | Plasma Conc ([9]; plasma, 2 h, animal 3): 745 ng/mL | Plasma Conc ([9]; plasma, 4 h, animal 1): 97.9 ng/mL | Plasma Conc ([9]; plasma, 4 h, animal 2): 74.6 ng/mL | Plasma Conc ([9]; plasma, 4 h, animal 3): 79.8 ng/mL | Plasma Conc ([9]; plasma, 8 h, animal 1): 19.1 ng/mL | Plasma Conc ([9]; plasma, 8 h, animal 2): 17.5 ng/mL | Plasma Conc ([9]; plasma, 8 h, animal 3): 13.4 ng/mL | Relative Abundance (UV%) [10]: 80.76% | fraction unbound at 6 h, 0.2 µM [11]: 0.538 | fraction unbound at 6 h, 10 µM [11]: 0.736 | IC50 [12]: > 100 µM | IC50 [13]: > 100 µM | % remaining ([14]; human hepatocytes Donor 1, 10.0 μM): 69.1% | % remaining ([14]; human hepatocytes Donor 2, 15.0 μM): 89.3% | % remaining ([14]; human hepatocytes Donor 3, 10.0 μM): 61.0% | IC50 [15]: > 100 µM | Time-dependent inhibition of CYP2B6 [15, 17]: no time-dependent inhibition | intrinsic clearance CLint(hep) ([16]; cryopreserved cynomolgus monkey hepatocytes, 37.0°C, 120 min): < 1.9 μL/min/10^6 cells | half-life ([16]; cryopreserved cynomolgus monkey hepatocytes, 37.0°C, 120 min, LC-MS/MS): > 6.212 h | hepatic clearance CLint(liver) ([16]; scaled from cynomolgus monkey hepatocytes): < 6.7 mL/min/kg
